Laboratory results taken from patent US10285989B2, “Pyrimidinone amide compounds as PDE2 inhibitors” (Merck Sharp & Dohme Corp., priority 2015, dated 2019).

Tests used:
Rhesus PDE2A3 = Rhesus PDE2A3 (Macaca mulatta, UniProt B3VTJ2); test: PDE2 fluorescence polarization (IMAP FP) inhibition assay, rhesus PDE2A3; format: biochemical, rhesus macaque; settings: Lab B; read-out: Rhesus PDE2 Ki (nM) - Lab B
human PDE2A1 = human PDE2A1 (Homo sapiens (Human), UniProt O00408); test: PDE2 IMAP FP inhibition assay, human PDE2A1 (selectivity panel format); format: biochemical; settings: Lab B; read-out: Human PDE2 Ki (nM) - Lab B
Chain of human PDE2A1 (O00408 other isoform, or with tags, fused parts or gaps): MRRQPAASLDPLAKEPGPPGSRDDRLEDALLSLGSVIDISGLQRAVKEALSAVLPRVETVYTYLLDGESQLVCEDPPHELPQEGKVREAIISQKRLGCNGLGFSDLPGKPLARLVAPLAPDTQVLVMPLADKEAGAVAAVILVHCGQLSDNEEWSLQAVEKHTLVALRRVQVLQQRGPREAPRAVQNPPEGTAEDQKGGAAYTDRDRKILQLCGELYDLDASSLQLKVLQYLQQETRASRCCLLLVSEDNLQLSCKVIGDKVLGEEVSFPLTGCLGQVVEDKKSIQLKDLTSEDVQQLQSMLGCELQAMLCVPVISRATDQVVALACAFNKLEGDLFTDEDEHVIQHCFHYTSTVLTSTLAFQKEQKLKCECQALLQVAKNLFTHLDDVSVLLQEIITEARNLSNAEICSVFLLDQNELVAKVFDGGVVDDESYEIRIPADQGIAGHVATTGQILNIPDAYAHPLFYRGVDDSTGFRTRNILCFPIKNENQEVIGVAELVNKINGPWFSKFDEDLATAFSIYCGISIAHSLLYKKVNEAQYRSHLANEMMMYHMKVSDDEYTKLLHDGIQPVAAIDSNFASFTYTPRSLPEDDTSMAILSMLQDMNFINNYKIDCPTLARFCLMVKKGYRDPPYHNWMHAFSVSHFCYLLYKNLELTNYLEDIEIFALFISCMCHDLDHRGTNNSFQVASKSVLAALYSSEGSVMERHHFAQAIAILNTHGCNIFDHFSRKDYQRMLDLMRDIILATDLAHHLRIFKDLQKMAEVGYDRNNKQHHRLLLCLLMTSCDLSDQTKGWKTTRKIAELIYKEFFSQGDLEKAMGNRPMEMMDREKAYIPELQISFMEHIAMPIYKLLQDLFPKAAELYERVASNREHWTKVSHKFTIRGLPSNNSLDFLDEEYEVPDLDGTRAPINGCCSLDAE
Procedure, shortened: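 IMAP fluorescence polarization assay; substrate 50 nM FAM-cAMP with 1000 nM cGMP, enzyme at ~20% conversion, in 10 mM Tris pH 7.2, 10 mM MgCl2, 1 mM DTT, 0.01% Tween-20. 60 min room temperature, stopped with IMAP binding reagent, 1 h, then parallel/perpendicular fluorescence read.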

P-glycoprotein (P-gp) = P-glycoprotein (P-gp) (Homo sapiens (Human), UniProt P08183); test: P-gp transport, experimental BA/AB ratio, human; format: in vitro ADME; settings: LLC-PK1, 1 μM substrate concentration
Chain of P-glycoprotein (P-gp) (P08183 whole entry): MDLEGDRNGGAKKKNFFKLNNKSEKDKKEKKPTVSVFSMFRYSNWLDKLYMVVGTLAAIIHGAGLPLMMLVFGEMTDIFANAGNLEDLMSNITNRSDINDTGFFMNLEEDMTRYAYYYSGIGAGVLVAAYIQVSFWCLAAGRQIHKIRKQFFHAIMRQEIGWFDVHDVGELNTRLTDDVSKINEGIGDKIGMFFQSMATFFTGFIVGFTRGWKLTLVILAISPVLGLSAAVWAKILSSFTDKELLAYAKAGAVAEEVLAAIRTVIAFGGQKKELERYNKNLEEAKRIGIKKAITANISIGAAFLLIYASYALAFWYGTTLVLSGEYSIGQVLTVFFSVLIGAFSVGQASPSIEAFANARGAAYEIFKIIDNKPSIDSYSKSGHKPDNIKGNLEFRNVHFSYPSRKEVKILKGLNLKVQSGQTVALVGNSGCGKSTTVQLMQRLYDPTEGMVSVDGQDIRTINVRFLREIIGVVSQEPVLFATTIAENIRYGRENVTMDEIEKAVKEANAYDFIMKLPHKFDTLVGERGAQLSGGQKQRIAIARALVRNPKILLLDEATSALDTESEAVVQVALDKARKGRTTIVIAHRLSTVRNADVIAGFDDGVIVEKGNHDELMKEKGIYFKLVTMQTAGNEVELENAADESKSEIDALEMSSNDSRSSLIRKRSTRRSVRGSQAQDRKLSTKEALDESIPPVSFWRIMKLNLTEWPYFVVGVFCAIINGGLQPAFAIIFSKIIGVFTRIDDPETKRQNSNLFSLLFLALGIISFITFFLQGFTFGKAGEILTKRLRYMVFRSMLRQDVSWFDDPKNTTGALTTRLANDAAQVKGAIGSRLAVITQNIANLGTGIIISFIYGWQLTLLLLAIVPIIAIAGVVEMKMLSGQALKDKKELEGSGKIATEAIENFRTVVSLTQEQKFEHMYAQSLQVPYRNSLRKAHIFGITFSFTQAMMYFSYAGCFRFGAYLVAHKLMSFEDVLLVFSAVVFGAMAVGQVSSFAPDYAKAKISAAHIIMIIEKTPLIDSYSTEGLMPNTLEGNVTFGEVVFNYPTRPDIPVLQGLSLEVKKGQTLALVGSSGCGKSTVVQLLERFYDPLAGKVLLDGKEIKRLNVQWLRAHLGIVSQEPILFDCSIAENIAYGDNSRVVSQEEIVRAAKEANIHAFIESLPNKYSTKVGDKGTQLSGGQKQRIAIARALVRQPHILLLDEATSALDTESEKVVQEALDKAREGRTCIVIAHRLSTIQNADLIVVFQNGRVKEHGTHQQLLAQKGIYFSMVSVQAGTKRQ
From the text: (§1) See Doan et al. “Passive permeability and P-glycoprotein-mediated efflux differentiate central nervous system (CNS) and non-CNS marketed drugs”, J. Pharm. Exper. […] Desirable human BA/AB ratio is less than 2.0. […] See, for example, Desai, et al. Integration of in Silico and in Vitro Tools for Scaffold Optimization during Drug Discovery: Predicting P-glycoprotein Efflux” Mol. Pharmac.

[1] = biological target: P-glycoprotein (P-gp, rat Mdr1a) (Rattus norvegicus, UniProt Q6PSM0); test: P-gp transport, experimental BA/AB ratio, rat LLC-Mdr1a; format: in vitro ADME; settings: LLC-PK1; rat LLC-Mdrla; 1 μM substrate concentration
Chain of P-glycoprotein (P-gp, rat Mdr1a) (Q6PSM0 1-1272): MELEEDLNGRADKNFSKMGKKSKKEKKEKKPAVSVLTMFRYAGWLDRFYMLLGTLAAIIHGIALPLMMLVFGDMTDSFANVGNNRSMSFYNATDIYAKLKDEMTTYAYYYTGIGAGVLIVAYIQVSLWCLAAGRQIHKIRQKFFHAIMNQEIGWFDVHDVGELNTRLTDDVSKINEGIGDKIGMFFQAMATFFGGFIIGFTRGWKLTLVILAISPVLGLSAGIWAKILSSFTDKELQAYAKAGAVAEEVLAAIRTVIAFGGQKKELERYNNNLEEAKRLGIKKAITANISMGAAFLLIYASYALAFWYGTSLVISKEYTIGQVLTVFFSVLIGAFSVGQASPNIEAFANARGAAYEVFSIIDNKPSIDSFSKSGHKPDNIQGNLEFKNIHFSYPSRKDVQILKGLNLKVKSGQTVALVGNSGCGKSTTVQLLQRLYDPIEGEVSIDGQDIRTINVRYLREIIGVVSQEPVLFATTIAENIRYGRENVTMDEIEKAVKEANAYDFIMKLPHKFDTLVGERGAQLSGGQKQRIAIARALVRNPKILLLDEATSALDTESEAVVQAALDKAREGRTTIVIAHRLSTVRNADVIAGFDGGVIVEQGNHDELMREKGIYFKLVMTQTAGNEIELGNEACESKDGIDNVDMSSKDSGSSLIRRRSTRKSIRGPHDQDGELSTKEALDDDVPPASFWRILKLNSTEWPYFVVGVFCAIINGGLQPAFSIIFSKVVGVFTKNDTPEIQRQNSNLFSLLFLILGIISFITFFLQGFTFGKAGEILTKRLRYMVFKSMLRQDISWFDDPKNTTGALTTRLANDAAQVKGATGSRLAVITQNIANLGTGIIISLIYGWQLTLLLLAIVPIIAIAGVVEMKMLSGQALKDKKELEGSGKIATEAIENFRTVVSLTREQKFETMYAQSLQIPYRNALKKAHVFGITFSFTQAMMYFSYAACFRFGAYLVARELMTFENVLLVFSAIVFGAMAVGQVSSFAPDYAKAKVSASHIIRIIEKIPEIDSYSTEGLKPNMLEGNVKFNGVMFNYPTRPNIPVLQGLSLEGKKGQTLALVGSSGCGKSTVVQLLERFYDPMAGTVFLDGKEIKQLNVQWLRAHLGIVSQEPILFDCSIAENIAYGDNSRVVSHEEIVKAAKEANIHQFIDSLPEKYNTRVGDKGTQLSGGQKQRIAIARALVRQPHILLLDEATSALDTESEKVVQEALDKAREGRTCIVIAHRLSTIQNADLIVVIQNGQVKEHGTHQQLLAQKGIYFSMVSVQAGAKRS
From the text: as §1

Chain of Rhesus PDE2A3 (B3VTJ2 1-941): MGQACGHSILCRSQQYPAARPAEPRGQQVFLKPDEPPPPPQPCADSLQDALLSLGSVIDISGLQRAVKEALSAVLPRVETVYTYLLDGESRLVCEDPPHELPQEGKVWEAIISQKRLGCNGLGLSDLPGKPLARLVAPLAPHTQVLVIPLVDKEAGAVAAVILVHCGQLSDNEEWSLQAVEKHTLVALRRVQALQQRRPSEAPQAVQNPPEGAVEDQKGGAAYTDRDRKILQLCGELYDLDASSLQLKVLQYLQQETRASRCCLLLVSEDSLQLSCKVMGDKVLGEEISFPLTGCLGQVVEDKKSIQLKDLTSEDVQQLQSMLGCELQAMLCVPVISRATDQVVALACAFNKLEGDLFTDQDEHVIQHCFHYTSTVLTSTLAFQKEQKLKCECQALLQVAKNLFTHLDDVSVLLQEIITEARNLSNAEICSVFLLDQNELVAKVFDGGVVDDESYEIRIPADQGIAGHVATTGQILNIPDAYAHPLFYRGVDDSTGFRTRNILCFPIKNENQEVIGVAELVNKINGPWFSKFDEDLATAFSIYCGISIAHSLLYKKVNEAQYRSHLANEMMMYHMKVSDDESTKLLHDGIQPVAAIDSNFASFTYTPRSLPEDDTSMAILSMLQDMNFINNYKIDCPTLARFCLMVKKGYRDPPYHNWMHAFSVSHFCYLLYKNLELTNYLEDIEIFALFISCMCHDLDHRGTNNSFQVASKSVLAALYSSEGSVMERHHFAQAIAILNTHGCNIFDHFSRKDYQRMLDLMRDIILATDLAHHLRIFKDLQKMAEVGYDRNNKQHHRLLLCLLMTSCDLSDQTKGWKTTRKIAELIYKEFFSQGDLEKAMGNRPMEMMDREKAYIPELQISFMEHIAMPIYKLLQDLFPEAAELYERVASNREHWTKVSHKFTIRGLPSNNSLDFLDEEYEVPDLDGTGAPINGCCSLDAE

Structure (SMILES)	Ki (Rhesus PDE2A3)	Ki (human PDE2A1)	efflux ratio at 1 μM (P-glycoprotein (P-gp))	efflux ratio at 1 μM [1]
CN(C)c1nc(C(=O)N[C@@H](c2ccc(C(F)(F)F)cc2F)C(C)(C)C)cc(=O)[nH]1 [Example 37, 2-(dimethylamino)-N-{(1R)-1-[2-fluoro-4-(trifluoromethyl)phenyl]-2,2-dimethylpropyl}-6-oxo-1,6-dihydropyrimidine-4-carboxamide]	0.11 nM	0.13 nM	1	1.2
C[C@@H](NC(=O)c1cc(=O)[nH]c(N(C)C)n1)c1ccc(C2CC2)c(F)c1 [Example 40, N-[(1R)-1-(4-cyclopropyl-3-fluorophenyl)ethyl]-2-(dimethylamino)-6-oxo-1,6-dihydropyrimidine-4-carboxamide]	0.87 nM	1.02 nM	0.5	2.4
CC(C)[C@@H](NC(=O)c1cc(=O)[nH]c(N(C)C)n1)c1ccc(C2CC2)c(F)c1 [Example 41, N-[(1R)-1-(4-cyclopropyl-3-fluorophenyl)-2-methylpropyl]-2-(dimethylamino)-6-oxo-1,6-dihydropyrimidine-4-carboxamide]	0.31 nM	0.36 nM	0.4	3.6
CN(C)c1nc(C(=O)N[C@@H](c2ccc(C(F)(F)F)c(F)c2)C2(C)CC2)cc(=O)[nH]1 [Example 42, 2-(dimethylamino)-N-[(R)-[3-fluoro-4-(trifluoromethyl)phenyl](1-methylcyclopropyl)methyl]-6-oxo-1,6-dihydropyrimidine-4-carboxamide]	0.45 nM	0.44 nM	0.7	3
CN(C)c1nc(C(=O)N[C@@H](c2ccc(C(F)(F)F)cc2)C2(C)CC2)cc(=O)[nH]1 [Example 43, 2-(dimethylamino)-N-{(R)-(1-methylcyclopropyl)[4-(trifluoromethyl)phenyl]methyl}-6-oxo-1,6-dihydropyrimidine-4-carboxamide]	0.23 nM	0.32 nM	0.7	2.3
CN(C)c1nc(C(=O)NC2(c3ccc(S(F)(F)(F)(F)F)cc3)CC2)cc(=O)[nH]1 [Example 45, 2-(dimethylamino)-6-oxo-N-{1-[4-(pentafluoro-λ^6-sulfanyl)phenyl]cyclopropyl}-1,6-dihydropyrimidine-4-carboxamide]	2.1 nM	1.7 nM	0.6	10.1
CC(C)[C@@H](NC(=O)c1cc(=O)[nH]c(N(C)C)n1)c1ccc(C(F)(F)F)cc1 [Example 47, 2-(dimethylamino)-N-{(1R)-2-methyl-1-[4-(trifluoromethyl)phenyl]propyl}-6-oxo-1,6-dihydropyrimidine-4-carboxamide]	0.43 nM	0.44 nM	0.6	2.1
CC(C)[C@@H](NC(=O)c1cc(=O)[nH]c(N(C)C)n1)c1ccc(OC(F)F)c(F)c1 [Example 48, N-{(1R)-1-[4-(difluoromethoxy)-3-fluorophenyl]-2-methylpropyl}-2-(dimethylamino)-6-oxo-1,6-dihydropyrimidine-4-carboxamide]	1.9 nM	1.7 nM	1.5	6.4
CN(C)c1nc(C(=O)N[C@@H](c2ccc(OC(F)F)c(F)c2)C(C)(C)C)cc(=O)[nH]1 [Example 54, N-{(1R)-1-[4-(difluoromethoxy)-3-fluorophenyl]-2,2-dimethylpropyl}-2-(dimethylamino)-6-oxo-1,6-dihydropyrimidine-4-carboxamide]	0.32 nM	0.38 nM	1.4	4.8
CN(C)c1nc(C(=O)N[C@@H](c2ccc(OC(F)F)c(F)c2)C2(C)CC2)cc(=O)[nH]1 [Example 55, N-[(R)-[4-(difluoromethoxy)-3-fluorophenyl](1-methylcyclopropyl)methyl]-2-(dimethylamino)-6-oxo-1,6-dihydropyrimidine-4-carboxamide]	1.4 nM	0.98 nM	0.6	3.4
CN(C)c1nc(C(=O)N[C@@H](c2ccc(C3CC3)c(F)c2)C2CC2)cc(=O)[nH]1 [Example 56, N-[(R)-cyclopropyl(4-cyclopropyl-3-fluorophenyl)methyl]-2-(dimethylamino)-6-oxo-1,6-dihydropyrimidine-4-carboxamide]	0.71 nM	0.51 nM	0.3	1.7
CN(C)c1nc(C(=O)N[C@@H](c2ccc(S(F)(F)(F)(F)F)cc2)C2(C)CC2)cc(=O)[nH]1 [Example 57, 2-(dimethylamino)-N-{(R)-(1-methylcyclopropyl)[4-(pentafluoro-λ^6-sulfanyl)phenyl]methyl}-6-oxo-1,6-dihydropyrimidine-4-carboxamide]	0.28 nM	0.31 nM	1.7	0.7
CN(C)c1nc(C(=O)N[C@@H](c2ccc(C(F)F)cc2)C2(C)CC2)cc(=O)[nH]1 [Example 61, N-[(R)-[4-(difluoromethyl)phenyl](1-methylcyclopropyl)methyl]-2-(dimethylamino)-6-oxo-1,6-dihydropyrimidine-4-carboxamide]	0.82 nM	0.75 nM	1.6	12.3
CN(C)c1nc(C(=O)N[C@@H](c2ccc(C(F)F)c(F)c2)C(C)(C)C)cc(=O)[nH]1 [Example 62, N-{(1R)-1-[4-(difluoromethyl)-3-fluorophenyl]-2,2-dimethylpropyl}-2-(dimethylamino)-6-oxo-1,6-dihydropyrimidine-4-carboxamide]	0.55 nM	0.52 nM	1.2	5.2

Continued, values first:

Ki (Rhesus PDE2A3)	Ki (human PDE2A1)	efflux ratio at 1 μM (P-glycoprotein (P-gp))	efflux ratio at 1 μM [1]	Structure (SMILES)
0.42 nM	0.51 nM	1.5	9.7	CN(C)c1nc(C(=O)N[C@@H](c2ccc(CC(F)(F)F)cc2)C(C)(C)C)cc(=O)[nH]1 [Example 31, 2-(dimethylamino)-N-{(1R)-2,2-dimethyl-1-[4-(2,2,2-trifluoroethyl)phenyl]propyl}-6-oxo-1,6-dihydropyrimidine-4-carboxamide]
0.46 nM	0.39 nM	2	12.7	CN(C)c1nc(C(=O)N[C@@H](c2ccc(OC(F)F)cc2)C(C)(C)C)cc(=O)[nH]1 [Example 34, N-{(1R)-1-[4-(difluoromethoxy)phenyl]-2,2-dimethylpropyl}-2-(dimethylamino)-6-oxo-1,6-dihydropyrimidine-4-carboxamide]
0.12 nM	0.11 nM	0.5	3.6	CN(C)c1nc(C(=O)N[C@@H](c2ccc(C3CC3)cc2)C(C)(C)C)cc(=O)[nH]1 [Example 35, N-[(1R)-1-(4-cyclopropylphenyl)-2,2-dimethylpropyl]-2-(dimelhylamino)-6-oxo-1,6-dihydropyrimidine-4-carboxamide]
1.6 nM	1.5 nM	0.7	2.1	CN(C)c1nc(C(=O)N[C@@H](c2ccc(C(C)(C)C)cc2)C2(C)CC2)cc(=O)[nH]1 [Example 44, N-[(R)-(4-tert-butylphenyl)(1-methylcyclopropyl)methyl]-2-(dimethylamino)-6-oxo-1,6-dihydropyrimidine-4-carboxamide]
0.1 nM	0.03 nM	1.3	4.7	CN(C)c1nc(C(=O)N[C@@H](c2ccc(C3CC3)c(F)c2)C(C)(C)C)cc(=O)[nH]1 [Example 58, N-[(1R)-1-(4-cyclopropyl-3-fluorophenyl)-2,2-dimethylpropyl]-2-(dimethylamino)-6-oxo-1,6-dihydropyrimidine-4-carboxamide]
0.42 nM	0.29 nM	0.8	4.3	CN(C)c1nc(C(=O)N[C@@H](c2ccc(C(F)F)cc2)C(C)(C)C)cc(=O)[nH]1 [Example 60, N-{(1R)-1-[4-(difluoromethyl)phenyl]-2,2-dimethylpropyl}-2-(dimethylamino)-6-oxo-1,6-dihydropyrimidine-4-carboxamide]
0.23 nM	0.21 nM	0.3	4.8	CN(C)c1nc(C(=O)N[C@@H](c2ccc(C3CC3)cc2)C2(C)CC2)cc(=O)[nH]1 [Example 71, N-[(R)-(4-cyclopropylphenyl)(1-methylcyclopropyl)methyl]-2-(dimethylamino)-6-oxo-1,6-dihydropyrimidine-4-carboxamide]
0.26 nM	0.17 nM	1.2	6.9	CN(C)c1nc(C(=O)N[C@@H](c2ccc(C(F)F)cc2F)C(C)(C)C)cc(=O)[nH]1 [Example 73, N-{(1R)-1-[4-(difluoromethyl)-2-fluorophenyl]-2,2-dimethylpropyl}-2-(dimethylamino)-6-oxo-1,6-dihydropyrimidine-4-carboxamide]
